Test [1] deals with T1, myeloperoxidase (Homo sapiens, UniProt P05164).
T1 sequence (P05164 49-745): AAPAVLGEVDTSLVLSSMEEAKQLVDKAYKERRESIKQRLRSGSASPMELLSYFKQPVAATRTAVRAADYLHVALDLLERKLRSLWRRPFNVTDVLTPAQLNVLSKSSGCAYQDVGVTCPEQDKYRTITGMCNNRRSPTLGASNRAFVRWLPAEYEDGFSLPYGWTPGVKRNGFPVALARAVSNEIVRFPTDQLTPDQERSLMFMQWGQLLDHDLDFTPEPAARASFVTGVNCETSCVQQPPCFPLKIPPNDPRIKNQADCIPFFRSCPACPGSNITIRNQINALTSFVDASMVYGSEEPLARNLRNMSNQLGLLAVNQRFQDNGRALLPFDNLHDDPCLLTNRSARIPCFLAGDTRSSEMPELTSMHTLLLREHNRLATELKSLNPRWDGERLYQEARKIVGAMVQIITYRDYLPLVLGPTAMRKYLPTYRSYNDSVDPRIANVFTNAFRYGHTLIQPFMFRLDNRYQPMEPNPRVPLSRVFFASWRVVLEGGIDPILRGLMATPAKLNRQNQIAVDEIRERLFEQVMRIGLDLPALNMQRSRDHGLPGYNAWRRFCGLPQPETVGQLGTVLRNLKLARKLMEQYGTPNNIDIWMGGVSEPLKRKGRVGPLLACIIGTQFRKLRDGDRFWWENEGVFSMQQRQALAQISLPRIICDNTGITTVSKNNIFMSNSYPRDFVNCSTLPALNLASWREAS
Description: MPO Peroxidation Assay (Amplex Red Assay). Format: biochemical. Conditions: potency range class.

Test [2] deals with T1, myeloperoxidase. The test can be described thus: MPO Chlorination Assay (APF Assay). Format: biochemical. Conditions: potency range class.
The mark [3] stands for this setting: read-out: Amplex Red Assay IC50 value.

For orientation: IC50 means the concentration at which inhibition is half-maximal. As to `CN(C)C(=O)CN(CC[C@H](c1ccccc1)c1cc(N)nc2[nH]nnc12)C12CCC(c3ccccc3)(CC1)CC2` [Example 192, 2-{[(3R)-3-{5-amino-3H-[1,2,3]triazolo [4,5-b]pyridin-7-yl}-3-phenylpropyl]({4-phenylbicyclo[2.2.2]octan-1-yl})amino}-N,N-dimethylacetamide], the IC50 in test [1] (setting [3]) fell in the range of 1 to 10 µM; in test [2] (read-out: APF Assay IC50 value) it was 0.001 to 0.1 µM.
For `Nc1cc([C@H](CCN(CC2CCO2)C23CCC(c4ccccc4)(CC2)CC3)c2ccccc2)c2nn[nH]c2n1` (stereo partly drawn) [Example 193, 7-[(1R)-3-{[(oxetan-2-yl)methyl]({4-phenylbicyclo [2.2.2]octan-1-yl})amino}-1-phenylpropyl]-3H-[1,2,3]triazolo[4,5-b]pyridin-5-amine], in that order: 0.001 to 0.1 µM and 0.001 to 0.1 µM.
For `Nc1cc([C@H](CCN(CC2CCCO2)C23CCC(c4ccccc4)(CC2)CC3)c2ccccc2)c2nn[nH]c2n1` (stereo partly drawn) [Example 195, 7-[(1R)-3-{[(oxolan-2-yl)methyl]({4-phenylbicyclo [2.2.2]octan-1-yl})amino}-1-phenylpropyl]-3H-[1,2,3]triazolo[4,5-b]pyridin-5-amine], in that order: 0.101 to 0.999 µM and 0.001 to 0.1 µM.
On to `COCCN(CC[C@H](c1ccccc1)c1cc(N)nc2[nH]nnc12)C12CCC(c3ccccc3)(CC1)CC2` [Example 196, 7-[(1R)-3-[(2-methoxyethyl)({4-phenylbicyclo[2.2.2]octan-1-yl})amino]-1-phenylpropyl]-3H-[1,2,3]triazolo[4,5-b]pyridin-5-amine], for which the concentration for half-maximal inhibition (IC50) in test [1] (setting [3]) was 0.101 to 0.999 µM; in test [2] (read-out: APF Assay IC50 value) it was 0.001 to 0.1 µM.
In the same order, the values of `Nc1cc([C@H](CCN(CC(F)F)C23CCC(c4ccccc4)(CC2)CC3)c2ccccc2)c2nn[nH]c2n1` [Example 197, 7-[(1R)-3-[(2,2-difluoroethyl)({4-phenylbicyclo[2.2.2]octan-1-yl})amino]-1-phenylpropyl]-3H-[1,2,3]triazolo[4,5-b]pyridin-5-amine] are 0.101 to 0.999 µM and 0.001 to 0.1 µM.
Regarding `Nc1cc([C@H](CCN(CC(O)C(F)(F)F)C23CCC(c4ccccc4)(CC2)CC3)c2ccccc2)c2nn[nH]c2n1` (stereo partly drawn) [Example 198, 3-{[(3R)-3-{5-amino-3H-[1,2,3]triazolo [4,5-b]pyridin-7-yl}-3-phenylpropyl]({4-phenylbicyclo[2.2.2]octan-1-yl})amino}-1,1,1-trifluoropropan-2-ol], the IC50 in test [1] (setting [3]) and in test [2] (read-out: APF Assay IC50 value) was 0.001 to 0.1 µM throughout.
As for `Nc1cc([C@H](CC(=O)NC23CCC(c4ccccc4)(CC2)CC3)c2ccccc2)c2nn[nH]c2n1` [Example 200, (R)-3-(5-amino-3H-[1,2,3]triazolo[4,5-b]pyridin-7-yl)-3-phenyl-N-(4-phenylbicyclo[2.2.2]octan-1-yl)propanamide], the results for the IC50 in test [1] (setting [3]) and in test [2] (read-out: APF Assay IC50 value) were 0.101 to 0.999 µM and 0.001 to 0.1 µM, respectively.
In the same order, the values of `Nc1cc([C@H](CC(=O)NC23CCC(c4ccccc4)(CC2)C(O)C3)c2ccccc2)c2nn[nH]c2n1` (stereo partly drawn) [Example 201, (3R)-3-{5-amino-3H-[1,2,3]triazolo[4,5-b]pyridin-7-yl}-N-{3-hydroxy-4-phenylbicyclo [2.2.2]octan-1-yl}-3-phenylpropanamide] are 0.101 to 0.999 µM and 0.001 to 0.1 µM.
As for `Nc1cc([C@H](CC(=O)NC23CCC(c4ccccc4)(CC2)CC3)c2cccc(O)c2)c2nn[nH]c2n1` [Example 202, (3R)-3-{5-amino-3H-[1,2,3]triazolo[4,5-b]pyridin-7-yl}-3-(3-hydroxyphenyl)-N-{4-phenylbicyclo [2.2.2]octan-1-yl} propanamide], the IC50 in test [1] (setting [3]) was 0.101 to 0.999 µM; in test [2] (read-out: APF Assay IC50 value), 0.001 to 0.1 µM.
`Nc1cc([C@H](CC(=O)NC2CCC(c3ccccc3)c3ccccc32)c2ccccc2)c2nn[nH]c2n1` (stereo partly drawn) [Example 203, (3R)-3-{5-amino-3H-[1,2,3]triazolo[4,5-b]pyridin-7-yl}-3-phenyl-N-(4-phenyl-1,2,3,4-tetrahydronaphthalen-1-yl)propanamide]: the IC50 in test [1] (setting [3]) lay in the range of 1 to 10 µM; in test [2] (read-out: APF Assay IC50 value) it was 0.101 to 0.999 µM.
In the same order, the values of `Nc1cc(C(CCCN2CC(c3ccc(F)cc3)c3ccccc32)c2ccccc2)c2nn[nH]c2n1` (stereo not drawn) [Example 205, 7-{4-[3-(4-fluorophenyl)-2,3-dihydro-1H-indol-1-yl]-1-phenylbutyl}-3H-[1,2,3]triazolo [4,5-b]pyridin-5-amine] are 1 to 10 µM and 1 to 10 µM.
In the same order, the values of `Nc1cc(C(CCCN2CCC(c3ccccc3)c3ccccc32)c2ccccc2)c2nn[nH]c2n1` (stereo not drawn) [Example 206, 7-[1-phenyl-4-(4-phenyl-1,2,3,4-tetrahydroquinolin-1-yl)butyl]-3H-[1,2,3]triazolo [4,5-b]pyridin-5-amine] are 1 to 10 µM and 0.001 to 0.1 µM.
For the compound `Nc1cc(C(CCCN2CCC(O)(c3ccccc3)CC2)c2ccccc2)c2nn[nH]c2n1` (stereo not drawn) [Example 207, 1-(4-{5-amino-3H-[1,2,3]triazolo [4,5-b]pyridin-7-yl}-4-phenylbutyl)-4-phenylpiperidin-4-ol], the IC50 lay in the range of 0.101 to 0.999 µM in test [1] (setting [3]) and 0.001 to 0.1 µM in test [2] (read-out: APF Assay IC50 value).
Turning to `Nc1cc(C(CCCN[C@H]2CC[C@H](c3ccccc3)CC2)c2ccccc2)c2nn[nH]c2n1` (stereo partly drawn) [Example 208, 7-(1-phenyl-4-{[(trans)-4-phenylcyclohexyl]amino}butyl)-3H-[1,2,3]triazolo [4,5-b]pyridin-5-amine], the IC50 in test [1] (setting [3]) was 1 to 10 µM; in test [2] (read-out: APF Assay IC50 value), 0.101 to 0.999 µM.
For `Nc1cc(C(CCCN2CCC(c3ccccc3)C2)c2ccccc2)c2nn[nH]c2n1` (stereo not drawn) [Example 209, 7-[1-phenyl-4-(3-phenylpyrrolidin-1-yl)butyl]-3H-[1,2,3]triazolo [4,5-b]pyridin-5-amine], in that order: 0.101 to 0.999 µM and 0.101 to 0.999 µM.
In the same order, the values of `Nc1cc(C(CCCN2CCC3(CC2)OCc2ccccc23)c2ccccc2)c2nn[nH]c2n1` (stereo not drawn) [Example 210, 7-(1-phenyl-4-{3H-spiro[2-benzofuran-1,4′-piperidine]-1′-yl}butyl)-3H-[1,2,3]triazolo [4,5-b]pyridin-5-amine] are 0.101 to 0.999 µM and 0.001 to 0.1 µM.
For `N#CC1(c2ccccc2)CCN(CCCC(c2ccccc2)c2cc(N)nc3[nH]nnc23)CC1` (stereo not drawn) [Example 211, 1-(4-{5-amino-3H-[1,2,3]triazolo [4,5-b]pyridin-7-yl}-4-phenylbutyl)-4-phenylpiperidine-4-carbonitrile], in that order: 0.101 to 0.999 µM and 0.001 to 0.1 µM.
Take `Nc1cc(C(CCCN2CCCC(c3ccccc3)CC2)c2ccccc2)c2nn[nH]c2n1` (stereo not drawn) [Example 212, 7-[1-phenyl-4-(4-phenylazepan-1-yl)butyl]-3H-[1,2,3] triazolo[4,5-b] pyridin-5-amine]: the concentration for half-maximal inhibition (IC50) in test [1] (setting [3]) lay in the range of 0.101 to 0.999 µM; in test [2] (read-out: APF Assay IC50 value) it was 0.001 to 0.1 µM.
As to `Nc1cc(C(CCCN2CCC(Cc3ccccc3)CC2)c2ccccc2)c2nn[nH]c2n1` (stereo not drawn) [Example 213, 7-[4-(4-benzylpiperidin-1-yl)-1-phenylbutyl]-3H-[1,2,3]triazolo [4,5-b]pyridin-5-amine], the IC50 in test [1] (setting [3]) and in test [2] (read-out: APF Assay IC50 value) was 0.101 to 0.999 µM in each case.
On to `Nc1cc([C@H](CCCN2CCCC(c3ccccc3)CC2)c2ccccc2)c2nn[nH]c2n1` (stereo partly drawn) [Example 215, 7-[(1R)-1-phenyl-4-(4-phenylazepan-1-yl)butyl]-3H-[1,2,3]triazolo[4,5-b]pyridin-5-amine], for which the results for the IC50 in test [1] (setting [3]) and in test [2] (read-out: APF Assay IC50 value) were 0.101 to 0.999 µM and 0.001 to 0.1 µM, respectively.
Turning to `Nc1cc([C@H](CCCN2[C@@H]3CC[C@H]2C[C@](O)(c2ccc(Cl)cc2)C3)c2ccccc2)c2nn[nH]c2n1` [Example 216, (1R,3R,5S)-8-[(4R)-4-{5-amino-3H-[1,2,3]triazolo [4,5-b]pyridin-7-yl}-4-phenylbutyl]-3-(4-chlorophenyl)-8-azabicyclo[3.2.1] octan-3-ol], the IC50 in test [1] (setting [3]) was 0.101 to 0.999 µM; in test [2] (read-out: APF Assay IC50 value), 0.001 to 0.1 µM.
In the same order, the values of `Nc1cc([C@H](CCCN2CCC3(CC2)NC(=O)Cc2ccccc23)c2ccccc2)c2nn[nH]c2n1` [Example 217, 1′-[(4R)-4-{5-amino-3H-[1,2,3]triazolo [4,5-b]pyridin-7-yl}-4-phenylbutyl]-3,4-dihydro-2H-spiro[isoquinoline-1,4′-piperidine]-3-one] are 0.101 to 0.999 µM and 0.101 to 0.999 µM.
For `Nc1cc([C@H](CCCN2CCC(c3ccc4ccccc4c3)CC2)c2ccccc2)c2nn[nH]c2n1` [Example 218, 7-[(1R)-4-[4-(naphthalen-2-yl)piperidin-1-yl]-1-phenylbutyl]-3H-[1,2,3]triazolo[4,5-b] pyridin-5-amine], in that order: 0.101 to 0.999 µM and 0.001 to 0.1 µM.
For `Nc1cc([C@H](CCCN2CC[C@H]3C[C@@H]2Cc2ccccc23)c2ccccc2)c2nn[nH]c2n1` [Example 219, 7-((R)-1-phenyl-4-((2R,6S)-1,4,5,6-tetrahydro-2,6-methanobenzo[d]azocin-3(2H)-yl)butyl)-3H-[1,2,3] triazolo[4,5-b] pyridin-5-amine], the results for the IC50 in test [1] (Amplex Red Assay IC50 value (μM)) and in test [2] (APF Assay IC50 value (μM)) were 0.101 to 0.999 µM and 0.001 to 0.1 µM, respectively.
